Values of other authors in US4127524A, “Novel dodecapeptides, intermediates therefor, and compositions and methods employing said dodecapeptides” (priority 1977, dated 1978).

Tests used:
[1] = tested on: partially purified brain opiate receptor sites
rat = details: injected directly into the brain of the rat

For “H-Tyr-Gly-Gly-Phe-Met-OH [methionine enkephalin]”, the “binding to partially purified brain opiate receptor sites” value [1] is listed as “binds stereo-specifically” and the analgesic activity (rat) is listed as “only weak analgesic agent of short duration”.
